Results from article PMC10549826 (Antiviral research, 2023).
pIC50: −log10 of the molar value.

Columns and labels:
Assay type in all cases: biochemical, influenza A(H3N2) virus
[1] = target: A/Victoria/361/2011 NA with T439R (Q136, T148, R150, R439) (Influenza A virus, UniProt G9LQ08, H150R/T439R)
[2] = target: A/Victoria/361/2011 NA with T148I (Q136, I148, R150, T439) (Influenza A virus, UniProt G9LQ08, H150R/T148I)
[3] = target: A/Victoria/361/2011 NA with R150H (Q136, T148, H150, T439) (Influenza A virus, UniProt G9LQ08)
[4] = target: A/Victoria/361/2011 NA with Q136K (K136, T148, R150, T439) (Influenza A virus, UniProt G9LQ08, H150R/Q136K)

CCC(CC)[C@H](NC(C)=O)[C@@H]1[C@H](O)[C@@H](C(=O)O)C[C@H]1N=C(N)N [Peramivir, peramivir]
pIC50 [1]: 9.62
IC50 fold-change [1]: 0.24 ± 0.04 (3) fold
pIC50 [2]: 10.05
IC50 fold-change [2]: 0.09 ± 0.01 (1) fold
pIC50 [3]: 10.10
IC50 fold-change [3]: 0.08 ± 0.01 (1) fold
pIC50 [4]: 9.25
IC50 fold-change [4]: 0.56 ± 0.09 (8) fold
